From patent US11529318B2, “Devices and methods for local delivery of tacrolimus” (UNIVERSITY OF PITTSBURGH—OF THE COMMONWEALTH SYSTEM OF …, priority 2017, dated 2022)

Test system: glial fibrillary acidic protein (GFAP) expression
Assay: GFAP immunohistochemistry of optic nerve after optic nerve crush
Type: in vivo, Sprague-Dawley rats
Conditions: 14 days after optic nerve crush, systemic tacrolimus treatment, compared to uncrushed controls
Experimental: Optic nerve ischemia and PEUU-Tac matrix application. Animals were anesthetized by intraperitoneal injection of 45:10 mg/kg ketamine/xylazine cocktail. Once anaesthetized, the optic nerve was exposed by making a small incision and then creating a nearly bloodless plane through the conjunctiva by blunt dissection with #5 forceps. The surrounding muscle and connective tissue around the optic nerve were then gently separated until the optic nerve was exposed. Using a Yasagril aneurysm clip, the right optic nerve was clamped ˜2 mm behind the globe for 10 seconds (Sarikcioglu, Demir et al. 2007). After removing the clip, ophthalmic artery integrity was confirmed by visualization. For some animals, the optic nerve sheath was fenestrated at the injury site by making an 1-2 mm incision. For animals receiving PEUU-Tac, a 1×5 mm section cut from a 10 mg PEUU-Tac matrix was sutured around the injury site and then secured by suturing to the outer sheath. After each optic nerve procedure, the conjunctiva was sutured and antibiotic ointment (Gentamicin, Bausch & Lomb, Tampa, Fla.) was applied to the eye. In total, twenty-eight animals received acute optic nerve ischemia to the right optic nerve with or without a PEUU-Tac wrap.
Immunohistochemistry. […]

C=CC[C@@H]1/C=C(\C)C[C@H](C)C[C@H](OC)[C@H]2O[C@@](O)(C(=O)C(=O)N3CCCC[C@H]3C(=O)O[C@H](/C(C)=C/[C@@H]3CC[C@@H](O)[C@H](OC)C3)[C@H](C)[C@@H](O)CC1=O)[C@H](C)C[C@@H]2OC [tacrolimus] was tested, and the “GFAP expression in optic nerve” value was “did not cause significant GFAP expression”.
